Measured values published in patent US9650395B2, “Antibacterial compounds and methods for use” (PTC Therapeutics, Inc., priority 2011, dated 2017).
Values after ≈ are worked out from the molar mass of the structure shown. Like-named read-outs stand apart in the source and are kept apart here.

Legend:
[1] = system: quinolone resistant E. coli LZ3111; assay: Antibacterial activity, MIC, quinolone resistant E. coli LZ3111; format: cell-based, Escherichia coli; details: Escherichia coli, read-out: MIC, LZ3111
From the text: (§1) The antibacterial activity from a microbroth dilution method may be presented as the minimum inhibitory concentration (MIC in […]). The MIC value is the lowest concentration of a drug which prevents macroscopically visible bacterial growth under test conditions.
Mutations in these regions are known to confer a high level resistance to the quinolone class of antibiotics.

[2] = system: Gram-positive Staphylococcus aureus (S. aureus) 29213; assay: Antibacterial activity, microbroth dilution MIC, S. aureus 29213; format: cell-based; details: Staphylococcus aureus; S. aureus 29213, microbroth dilution; read-out: MIC, 29213
[3] = system: control Gram-negative E. coli 25922 strain; assay: Antibacterial activity, microbroth dilution MIC, E. coli 25922; format: cell-based, Escherichia coli; details: Escherichia coli; E. coli 25922, microbroth dilution; read-out: MIC, 25922
[4] = system: Neisseria meningitidis (N. meningitidis) 13090; assay: Antibacterial activity, MIC, N. meningitidis 13090; format: cell-based; details: Neisseria meningitidis; N. meningitidis 13090; read-out: MIC 13090
[5] = system: E. coli ELZ4000 (MDR clinical isolate); assay: Antibacterial activity, MIC, MDR E. coli ELZ4000; format: cell-based, Escherichia coli; details: Escherichia coli; E. coli ELZ4000, MDR clinical isolate; read-out: MIC ELZ4000
[6] = system: super sensitive Gram-negative Escherichia coli (E. coli) BAS849; assay: Antibacterial activity, microbroth dilution MIC, E. coli BAS849; format: cell-based; details: Escherichia coli, read-out: MIC, BAS849
[7] = system: Moraxella catarrhalis (M. catarrhalis) 25238; assay: Antibacterial activity, MIC, M. catarrhalis 25238; format: cell-based; details: Moraxella catarrhalis, M. catarrhalis 25238; read-out: MIC 25238
[8] = system: E. coli ELZ4251 (MDR clinical isolate); assay: Antibacterial activity, MIC, MDR E. coli ELZ4251; format: cell-based, Escherichia coli; details: Escherichia coli, E. coli ELZ4251, MDR clinical isolate; read-out: MIC ELZ4251
[9] = system: Haemophilus influenzae (H. influenzae) 49247; assay: Antibacterial activity, MIC, H. influenzae 49247; format: cell-based; details: Haemophilus influenzae; H. influenzae 49247; read-out: MIC 49247
From the text: as §1
Antibacterial activity of test compounds against the Gram-negative bacteria Haemophilus influenzae (H. influenzae) 49247, Moraxella catarrhalis (M. catarrhalis) 25238 and Neisseria meningitidis (N. meningitidis) 13090 is shown in Table 6.

[10] = system: Pseudomonas aeruginosa (P. aeruginosa) 27853; assay: Antibacterial activity, MIC, P. aeruginosa 27853; format: cell-based; details: Pseudomonas aeruginosa, P. aeruginosa 27853; read-out: MIC 27853
From the text: as §1
Antibacterial activity of test compounds against the Gram-negative bacterium Pseudomonas aeruginosa (P. aeruginosa) 27853 is shown in Table 5.

[11] = E. coli BAS849, microbroth dilution

Compound | MIC [1] [µg/mL] | MIC [2] [µg/mL] | MIC [3] [µg/mL] | MIC [4] [µg/mL] | MIC [5] [µg/mL] | MIC [6, 11] [µg/mL] | MIC [7] [µg/mL] | MIC [8] [µg/mL] | MIC [9] [µg/mL] | MIC [6] [µg/mL] | MIC [10] [µg/mL]
CCc1cc(C(=O)O)c(=O)[nH]c1-c1ccc(N)cc1 [Cpd 3, 6-(4-aminophenyl)-5-ethyl-2-oxo-1,2-dihydropyridine-3-carboxylic acid] | 12.5 to 150 (≈ 48.4 to 581 µM) | 12.5 to 150 (≈ 48.4 to 581 µM) | 3.5 to 12.5 (≈ 13.6 to 48.4 µM) | < 1 | 12.5 to 150 (≈ 48.4 to 581 µM) | < 1 | < 1 | 12.5 to 150 (≈ 48.4 to 581 µM) | – | – | –
CCc1cc(C(=O)O)c(=O)[nH]c1-c1ccc(N(C)CCOC2CCCCO2)cc1 (stereo not shown) [Cpd 16, 5-ethyl-6-(4-{methyl[2-(tetrahydro-2H-pyran-2-yloxy)ethyl]amino}phenyl)-2-oxo-1,2-dihydropyridine-3-carboxylic acid] | 12.5 to 150 (≈ 31.2 to 375 µM) | 12.5 to 150 (≈ 31.2 to 375 µM) | 3.5 to 12.5 (≈ 8.74 to 31.2 µM) | – | 12.5 to 150 (≈ 31.2 to 375 µM) | < 1 | < 1 | 12.5 to 150 (≈ 31.2 to 375 µM) | < 1 | – | –
CCc1c(-c2ccc(N(C)CCO)cc2)[nH]c(=O)c(C(=O)O)c1O [Cpd 18, 5-ethyl-4-hydroxy-6-{4-[(2-hydroxyethyl)(methyl)amino]phenyl}-2-oxo-1,2-dihydropyridine-3-carboxylic acid] | 12.5 to 150 (≈ 37.6 to 451 µM) | 3.5 to 12.5 (≈ 10.5 to 37.6 µM) | 3.5 to 12.5 (≈ 10.5 to 37.6 µM) | – | 12.5 to 150 (≈ 37.6 to 451 µM) | < 1 | < 1 | 12.5 to 150 (≈ 37.6 to 451 µM) | < 1 | – | –
CCc1cc(C(=O)O)c(=O)[nH]c1-c1ccc(N2CCCC2)cc1F [Cpd 38, 5-ethyl-6-[2-fluoro-4-(pyrrolidin-1-yl)phenyl]-2-oxo-1,2-dihydropyridine-3-carboxylic acid] | 12.5 to 150 (≈ 37.8 to 454 µM) | 3.5 to 12.5 (≈ 10.6 to 37.8 µM) | 1 to 3.5 (≈ 3.03 to 10.6 µM) | – | 12.5 to 150 (≈ 37.8 to 454 µM) | < 1 | < 1 | 12.5 to 150 (≈ 37.8 to 454 µM) | – | – | –
CCc1cc(C(=O)O)c(=O)[nH]c1-c1ccc(N(C)C)cc1F [Cpd 53, 6-[4-(dimethylamino)-2-fluorophenyl]-5-ethyl-2-oxo-1,2-dihydropyridine-3-carboxylic acid] | – | 12.5 to 150 (≈ 41.1 to 493 µM) | 1 to 3.5 (≈ 3.29 to 11.5 µM) | – | – | < 1 | < 1 | – | – | – | –
CCc1cc(C(=O)O)c(=O)[nH]c1-c1ccc(N2CCC(CNCc3ccccc3)C2)cc1.Cl (stereo not shown) [Cpd 182, 6-(4-{3-[(benzylamino)methyl]pyrrolidin-1-yl}phenyl)-5-ethyl-2-oxo-1,2-dihydropyridine-3-carboxylic acid hydrochloride] | 12.5 to 150 | 12.5 to 150 | < 1 | < 1 | 12.5 to 150 | < 1 | < 1 | 12.5 to 150 | – | – | –
CCc1cc(C(=O)O)c(=O)[nH]c1-c1ccc(N2CCC(CN(C)C)C2)cc1.O=C(O)C(F)(F)F (stereo not shown) [Cpd 185, 6-(4-{3-[(dimethylamino)methyl]pyrrolidin-1-yl}phenyl)-5-ethyl-2-oxo-1,2-dihydropyridine-3-carboxylic acid trifluoroacetate] | 12.5 to 150 | 12.5 to 150 | 3.5 to 12.5 | < 1 | 12.5 to 150 | – | 1 to 3.5 | 12.5 to 150 | – | < 1 | –
CCc1cc(C(=O)O)c(=O)[nH]c1-c1ccc(N2C[C@H]3CCN(C)[C@H]3C2)cc1.O=C(O)C(F)(F)F [Cpd 187, 5-ethyl-6-{4-[(3aR,6aR)-1-methylhexahydropyrrolo[3,4-b]pyrrol-5(1H)-yl]phenyl}-2-oxo-1,2-dihydropyridine-3-carboxylic acid trifluoroacetate] | 12.5 to 150 | 12.5 to 150 | 3.5 to 12.5 | < 1 | 12.5 to 150 | – | 1 to 3.5 | 12.5 to 150 | – | < 1 | –
CCc1cc(C(=O)O)c(=O)[nH]c1-c1ccc(N2C[C@H]3CCC[C@H](N)[C@H]3C2)cc1.O=C(O)C(F)(F)F [Cpd 203, 6-{4-[(3aR,4S,7aS)-4-aminooctahydro-2H-isoindol-2-yl]phenyl}-5-ethyl-2-oxo-1,2-dihydropyridine-3-carboxylic acid trifluoroacetate] | 12.5 to 150 | 12.5 to 150 | 12.5 to 150 | – | 12.5 to 150 | – | – | 12.5 to 150 | – | 1 to 3.5 | 12.5 to 150
CCc1cc(C(=O)O)c(=O)[nH]c1-c1ccc(N2C[C@H](CN)[C@@H](C)C2)cc1 [Cpd 216, 6-{4-[(3S,4R)-3-(aminomethyl)-4-methylpyrrolidin-1-yl]phenyl}-5-ethyl-2-oxo-1,2-dihydropyridine-3-carboxylic acid] | 12.5 to 150 (≈ 35.2 to 422 µM) | 12.5 to 150 (≈ 35.2 to 422 µM) | 12.5 to 150 (≈ 35.2 to 422 µM) | – | 12.5 to 150 (≈ 35.2 to 422 µM) | 12.5 to 150 (≈ 35.2 to 422 µM) | – | 12.5 to 150 (≈ 35.2 to 422 µM) | – | – | 12.5 to 150 (≈ 35.2 to 422 µM)
CCc1cc(C(=O)O)c(=O)[nH]c1-c1ccc(N2C[C@H]3CCC[C@H](N=[N+]=[N-])[C@H]3C2)cc1.O=C(O)C(F)(F)F [Cpd 244, 6-{4-[(3aR,4S,7aS)-4-azidooctahydro-2H-isoindol-2-yl]phenyl}-5-ethyl-2-oxo-1,2-dihydropyridine-3-carboxylic acid trifluoroacetate] | 12.5 to 150 | 1 to 3.5 | 12.5 to 150 | – | 12.5 to 150 | – | – | 12.5 to 150 | – | < 1 | 12.5 to 150
CCc1c(-c2ccc(N3CC(N)C4(CC4)C3)cc2)[nH]c(=O)c(C(=O)O)c1O.O=C(O)C(F)(F)F (stereo not shown) [Cpd 252, 6-[4-(7-amino-5-azaspiro[2.4]hept-5-yl)phenyl]-5-ethyl-4-hydroxy-2-oxo-1,2-dihydropyridine-3-carboxylic acid trifluoroacetate] | 3.5 to 12.5 | 12.5 to 150 | 1 to 3.5 | – | 12.5 to 150 | – | – | 12.5 to 150 | – | < 1 | 12.5 to 150
CCc1c(-c2ccc(N3C[C@H]4CN(C)C[C@H]4C3)cc2)[nH]c(=O)c(C(=O)O)c1O.Cl [Cpd 273, 5-ethyl-4-hydroxy-6-{4-[(3aR,6aS)-5-methylhexahydropyrrolo[3,4-c]pyrrol-2(1H)-yl]phenyl}-2-oxo-1,2-dihydropyridine-3-carboxylic acid hydrochloride] | 12.5 to 150 | 12.5 to 150 | 1 to 3.5 | 1 to 3.5 | 12.5 to 150 | < 1 | 1 to 3.5 | 12.5 to 150 | – | – | –
CCc1c(-c2ccc(N3CCC(C)(CN)C3)cc2)[nH]c(=O)c(C(=O)O)c1O (stereo not shown) [Cpd 290, 6-{4-[3-(aminomethyl)-3-methylpyrrolidin-1-yl]phenyl}-5-ethyl-4-hydroxy-2-oxo-1,2-dihydropyridine-3-carboxylic acid] | 3.5 to 12.5 (≈ 9.42 to 33.7 µM) | 12.5 to 150 (≈ 33.7 to 404 µM) | 1 to 3.5 (≈ 2.69 to 9.42 µM) | – | 12.5 to 150 (≈ 33.7 to 404 µM) | < 1 | – | 3.5 to 12.5 (≈ 9.42 to 33.7 µM) | – | – | 12.5 to 150 (≈ 33.7 to 404 µM)
CCc1cc(C(=O)O)c(=O)[nH]c1-c1ccc(N2CC=CC2)cc1 [Cpd 301, 6-[4-(2,5-dihydro-1H-pyrrol-1-yl)phenyl]-5-ethyl-2-oxo-1,2-dihydropyridine-3-carboxylic acid] | 12.5 to 150 (≈ 40.3 to 483 µM) | < 1 | < 1 | – | 12.5 to 150 (≈ 40.3 to 483 µM) | < 1 | – | 12.5 to 150 (≈ 40.3 to 483 µM) | – | – | 3.5 to 12.5 (≈ 11.3 to 40.3 µM)
